# Biological target: activated p38 (Homo sapiens, UniProt Q16539)
# Experiment: p38 inhibition assay: inhibition of phosphorylation of EGF receptor peptide
# Assay type: biochemical
# Details: compound behaviour in the assay
# Method: p38 Inhibition Assays—Inhibition of Phosphorylation of EGF Receptor Peptide
# This assay was carried out in the presence of 10 mM MgCl2, 25 mM β-glycerophosphate, 10% glycerol and 100 mM HEPES buffer at pH 7.6. For a typical IC50 determination, a stock solution was prepared containing all of the above components and activated p38 (5 nM). The stock solution was aliquoted into vials. A fixed volume of DMSO or inhibitor in DMSO (final concentration of DMSO in reaction was 5%) was introduced to each vial, mixed and incubated for 15 minutes at room temperature.
# EGF receptor peptide, […], a phosphoryl acceptor in p38-catalysed kinase reaction (1), was added to each vial to a final concentration of 200 μM. The kinase reaction was initiated with ATP (100 μm) and the vials were incubated at 30C. After 30 minutes, the reactions were quenched with equal volume of 10% trifluoroacetic acid (TFA).
# The phosphorylated peptide was quantified by HPLC analysis. Separation of the phosphorylated peptide from the unphosphorylated peptide was achieved on a reverse phase column (Deltapak, 5 μM, C18 100D, part no. 011795) with a binary gradient of water and acetonitrile, each containing 0.1% TFA. IC50 (concentration of inhibitor yielding 50% inhibition) was determined by plotting the % activity remaining against inhibitor concentration.
# activated p38, sequence (Q16539 whole entry): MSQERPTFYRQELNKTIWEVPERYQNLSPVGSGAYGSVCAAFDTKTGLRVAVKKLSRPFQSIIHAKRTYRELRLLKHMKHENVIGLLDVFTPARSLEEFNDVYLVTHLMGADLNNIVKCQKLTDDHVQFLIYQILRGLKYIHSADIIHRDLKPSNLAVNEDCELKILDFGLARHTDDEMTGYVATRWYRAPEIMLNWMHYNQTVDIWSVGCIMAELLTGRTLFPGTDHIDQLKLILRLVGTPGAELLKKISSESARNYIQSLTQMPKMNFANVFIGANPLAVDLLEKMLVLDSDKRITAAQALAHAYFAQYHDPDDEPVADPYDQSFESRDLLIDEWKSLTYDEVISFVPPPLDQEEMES
row,SMILES,observation in the p38 enzyme assay
1,"O=c1c(-c2ccccc2F)cc2cnc(NN3CC4CCCC4C3)nc2n1Cc1ccc(F)cc1 (stereo not drawn) [Compound No. 13, 6-(2-Fluorophenyl)-2-(3-azabicyclo[3.3.0]oct-3-yl-amino)-8-(4-fluorobenzyl)-pyrido[2,3-d]pyrimidin-7(8H)-one]",formed a precipitate

# Tested on: TNF-α release from LPS-stimulated human peripheral blood mononuclear cells
# Experiment: Cell based assay for TNF-α release, LPS stimulation of human PBMNC's
# Details: PBMC, LPS 20 ng/ml, overnight, ELISA, collective range for the listed compounds, units given within the value (μM to nM), read-out: IC50 (TNF-α release; printed as IC50 for p38 inhibitory activity)
# Method: Cell based Assay for TNF-α release
# Method of Isolation of Human Peripheral Blood Mononuclear Cells:
# Human whole blood was collected in vacutainer tubes containing EDTA as an anti coagulant. A blood sample (7 ml) was carefully layered over 5 ml PMN Cell Isolation Medium (Robbins Scientific) in a 15 ml round bottom centrifuge tubes. The sample was centrifuged at 450-500×g for 30-35 minutes in a swing-out rotor at room temperature. After centrifugation the top band of cells were removed and washed 3 times with PBS w/o calcium or magnesium. The cells were centrifuged at 400×g for 10 minutes at room temperature. The cells were resuspended in Macrophage Serum Free Medium (Gibco BRL) at concentration of 2 million cells/ml.
# LPS Stimulation of Human PBMNC's:
# PBM cells (0.1 ml; 2 million/ml) were co-incubated with 0.1 ml of compound (10-0.41 μM, final concentration) for 1 hour in flat bottom 96 well microtiter plate. Compounds were dissolved in DMSO initially and diluted in TCM for a final concentration of 0.1% DMSO. LPS (Cal biochem, 20 ng/ml, final concentration) was then added at volume of 0.010 ml. Cultures were incubated overnight at 37° C.). Supernatant were then removed and tested by ELISA for TNF-α release. Viability was analyzed using MTT. After 0.1 ml supernatant was collected, 0.1 ml of 0.25 mg/ml of MTT was added to remaining 0.1 ml of cells. The cells were incubated at 37° C. for 2-4 hours, then the O.D was measured at 490-650 nm.
# The TNF-α levels released in the culture medium was quantitated by ELISA. Inhibitory potency was expressed as IC50.
row,SMILES,IC50 [µM]
1,"Cn1c(=O)c(-c2ccccc2Cl)cc2cnc(NN3CC4CCCC4C3)nc21 (stereo not drawn) [Compound No. 1, 6-(2-Chlorophenyl)-2-(3-azabicyclo[3.3.0]oct-3-yl-amino)-8-methylpyrido[2,3-d]pyrimidin-7(8H)-one]",0.14 to 3
2,"CCOC(=O)C(C)n1c(=O)c(-c2ccccc2F)cc2cnc(NN3CC4CCCC4C3)nc21 (stereo not drawn) [Compound No. 20, Ethyl 2-[6-(2-fluorophenyl)-2-(3-azabicyclo[3.3.0]oct-3-yl-amino)-7-oxopyrido[2,3-d]pyrimidin-8(7H)-yl]propanoate]",0.14 to 3
3,"CCOC(=O)C(C)n1c(=O)c(-c2ccccc2C)cc2cnc(NN3CC4CCCC4C3)nc21 (stereo not drawn) [Compound No. 21, Ethyl 2-[6-(2-methylphenyl)-2-(3-azabicyclo [3.3.0]oct-3-yl-amino)-7-oxopyrido[2,3-d]pyrimidin-8(7H)-yl]propanoate]",0.14 to 3
4,"O=c1c(-c2ccccc2F)cc2cnc(NN3CC4CCCC4C3)nc2n1C1CCCC1 (stereo not drawn) [Compound No. 22, 6-(2-Fluorophenyl)-2-(3-azabicyclo[3.3.0]oct-3-yl-amino)-8-(cyclopentyl)pyrido[2,3-d]pyrimidin-7(8H)-one]",0.14 to 3
5,"O=c1c(-c2ccccc2F)cc2cnc(NN3CC4CCCC4C3)nc2n1CC1CC1 (stereo not drawn) [Compound No. 23, 6-(2-Fluorophenyl)-2-(3-azabicyclo[3.3.0]oct-3-yl-amino)-8-(cyclopropylmethyl)-pyrido[2,3-d]pyrimidin-7(8H)-one]",0.14 to 3
6,"CCOCCn1c(=O)c(-c2ccccc2Cl)cc2cnc(NN3CC4CCCC4C3)nc21 (stereo not drawn) [Compound No. 25, 6-(2-Chlorophenyl)-2-(3-azabicyclo[3.3.0]oct-3-yl-amino)-8-(2-ethoxyethyl)pyrido[2,3-d]pyrimidin-7(8H)-one]",0.14 to 3
7,"CCCCS(=O)(=O)NCCn1c(=O)c(-c2ccccc2C)cc2cnc(NN3CC4CCCC4C3)nc21 (stereo not drawn) [Compound No. 40, N-{2-[2-(3-azabicyclo[3.3.0]oct-3-yl-amino)-6-(2-methylphenyl)-7-oxopyrido[2,3-d]pyrimidin-8(7H)-yl]ethyl}butane-1-sulfonamide]",0.14 to 3
8,"CCOC(=O)Cn1c(=O)c(-c2ccccc2C)cc2cnc(NN3CC4CCCC4C3)nc21 (stereo not drawn) [Compound No. 44, Ethyl[2-(3-azabicyclo[3.3.0]oct-3-yl-amino)-6-(2-methylphenyl)-7-oxopyrido[2,3-d]pyrimidin-8(7H)-yl]acetate]",0.14 to 3
9,"Cc1ccccc1-c1cc2cnc(NN3CC4CCCC4C3)nc2n(CC(=O)NC2CCC2)c1=O (stereo not drawn) [Compound No. 47, N-Cyclobutyl-2-[2-(3-azabicyclo[3.3.0]oct-3-yl-amino)-6-(2-methylphenyl)-7-oxopyrido[2,3-d]pyrimidin-8(7H)-yl]acetamide]",0.14 to 3

# The next lines start with the values.
row,IC50 [µM],SMILES
1,0.14 to 3,"COCCn1c(=O)c(-c2ccccc2C)cc2cnc(NN3CC4CCCC4C3)nc21 (stereo not drawn) [Compound No. 50, 6-(2-Methylphenyl)-2-(3-azabicyclo[3.3.0]oct-3-yl-amino)-8-(2-methoxyethyl)-pyrido[2,3-d]pyrimidin-7(8H)-one]"
2,0.14 to 3,"CCOCCn1c(=O)c(-c2ccccc2C)cc2cnc(NN3CC4CCCC4C3)nc21 (stereo not drawn) [Compound No. 51, 6-(2-Methylphenyl)-2-(3-azabicyclo[3.3.0]oct-3-yl-amino)-8-(2-ethoxyethyl)pyrido[2,3-d]pyrimidin-7(8H)-one]"
3,0.14 to 3,"O=c1c(-c2ccccc2Cl)cc2cnc(NN3CC4CCCC4C3)nc2n1C1CC1 (stereo not drawn) [Compound No. 52, 6-(2-Chlorophenyl)-2-(3-azabicyclo[3.3.0]oct-3-yl-amino)-8-cyclopropyl-pyrido[2,3-d]pyrimidin-7(8H)-one]"
4,0.14 to 3,"O=c1c(Oc2ccccc2F)cc2cnc(NN3CC4CCCC4C3)nc2n1C1CC1 (stereo not drawn) [Compound No. 59, 6-(2-Fluorophenoxy)-2-(3-azabicyclo[3.3.0]oct-3-yl-amino)-8-cyclopropyl-pyrido[2,3-d]pyrimidin-7(8H)-one]"
5,0.14 to 3,"Cn1c(=O)c(-c2c(Cl)cccc2Cl)cc2cnc(NN3CC4CCCC4C3)nc21 (stereo not drawn) [Compound No. 68, 6-(2,6-Dichlorophenyl)-2-(3-azabicyclo[3.3.0]oct-3-yl-amino)-8-methylpyrido[2,3-d]pyrimidin-7(8H)-one]"
6,0.14 to 3,"Cn1c(=O)c(-c2ccccc2[N+](=O)[O-])cc2cnc(NN3CC4CCCC4C3)nc21 (stereo not drawn) [Compound No. 69, 6-(2-Nitrophenyl)-2-(3-azabicyclo [3.3.0]oct-3-yl-amino)-8-methyl-pyrido[2,3-d]pyrimidin-7(8H)-one]"
7,0.14 to 3,"Cn1c(=O)c(-c2ccc(F)cc2Cl)cc2cnc(NN3CC4CCCC4C3)nc21 (stereo not drawn) [Compound No. 71, 6-(2-Chloro-4-fluorophenyl)-2-(3-azabicyclo [3.3.0]oct-3-yl-amino)-8-methylpyrido[2,3-d]pyrimidin-7(8H)-one]"

# Tested on: not given
# Experiment: not given
# Details: not given
row,SMILES,melting point [°C]
1,"Cc1ccccc1-c1cc2cnc(NN3CC4CCCC4C3)nc2n(C)c1=O (stereo not drawn) [Compound No. 2, 6-(2-Methylphenyl)-2-(3-azabicyclo[3.3.0]oct-3-yl-amino)-8-methylpyrido[2,3-d]pyrimidin-7(8H)-one]",69.8 to 79.8

# Reference: patent publication US20090036472A1, “AZABICYCLO DERIVATIVES AS ANTI-INFLAMMATORY AGENTS” (priority 2005, published 2009)
